The assay deals with MV-4-11 cells. Briefly: Gene expression microarray analysis (Affymetrix PrimeView) and GSEA. The note with it: MV-4-11 cells, 48 hours. The class given is cell-based, human. The arrangement: RFU PODN (11730768_x_at) / Fold change /veh PODN (11730768_x_at) / RFU LINC00158 (11744669_a_at) / Fold change /veh LINC00158 (11744669_a_at) / RFU DUSP10 (11751237_a_at) / Fold change /veh DUSP10 (11751237_a_at) / RFU ID3 (11757404_x_at) / Fold change /veh ID3 (11757404_x_at) / RFU PLEKHG5 (11737974_s_at) / Fold change /veh PLEKHG5 (11737974_s_at) / RFU LRRC4B (11730491_at) / Fold change /veh LRRC4B (11730491_at) / RFU GIMAP4 (11747438_a_at) / Fold change /veh GIMAP4 (11747438_a_at) / RFU KRT8 (11758183_x_at) / Fold change /veh KRT8 (11758183_x_at) / RFU CNN1 (11734310_a_at) / Fold change /veh CNN1 (11734310_a_at) / RFU VPS37D (11726825_at) / Fold change /veh VPS37D (11726825_at) / RFU C10orf10 (11716522_x_at) / Fold change /veh C10orf10 (11716522_x_at) / RFU KIR2DL2 /// KIR2DL4 /// KIR2DL5A /// KIR2DL5B /// KIR2DS1 /// KIR2DS2 /// KIR2DS3 /// KIR2DS4 /// KIR3DL3 /// KIR3DL3 /// KIR3DS1 (11738374_at) / Fold change /veh KIR2DL2 /// KIR2DL4 /// KIR2DL5A /// KIR2DL5B /// KIR2DS1 /// KIR2DS2 /// KIR2DS3 /// KIR2DS4 /// KIR3DL3 /// KIR3DL3 /// KIR3DS1 (11738374_at) / RFU C1QL1 (11718748_at) / Fold change /veh C1QL1 (11718748_at) / RFU TMPRSS4 (11747572_a_at) / Fold change /veh TMPRSS4 (11747572_a_at) / RFU HAMP (11756126_x_at) / Fold change /veh HAMP (11756126_x_at) / RFU RNFT2 (11725882_a_at) / Fold change /veh RNFT2 (11725882_a_at) / RFU NR4A2 (11747474_a_at) / Fold change /veh NR4A2 (11747474_a_at) / RFU ABCC12 (11746883_a_at) / Fold change /veh ABCC12 (11746883_a_at) / RFU TMEM136 (11760407_x_at) / Fold change /veh TMEM136 (11760407_x_at) / RFU CLDN22 /// WWC2 (11732394_at) / Fold change /veh CLDN22 /// WWC2 (11732394_at) / RFU HLA-DPB1 (11760878_x_at) / Fold change /veh HLA-DPB1 (11760878_x_at) / RFU SPINT1 (11716480_a_at) / Fold change /veh SPINT1 (11716480_a_at) / RFU GAP43 (11754022_s_at) / Fold change /veh GAP43 (11754022_s_at) / RFU A4GNT (11735810_at) / Fold change /veh A4GNT (11735810_at) / RFU PRB3 (11715151_x_at) / Fold change /veh PRB3 (11715151_x_at) / RFU TUBB4B (11761932_at) / Fold change /veh TUBB4B (11761932_at) / RFU CAPN14 (11732068_a_at) / Fold change /veh CAPN14 (11732068_a_at) / RFU TMCC2 (11721928_a_at) / Fold change /veh TMCC2 (11721928_a_at) / RFU IRGQ (11745062_a_at) / Fold change /veh IRGQ (11745062_a_at) / RFU FAM174B (11720279_a_at) / Fold change /veh FAM174B (11720279_a_at) / RFU TMPRSS4 (11748680_a_at) / Fold change /veh TMPRSS4 (11748680_a_at) / RFU FAM212B (11763350_a_at) / Fold change /veh FAM212B (11763350_a_at) / RFU PLEKHG5 (11743358_a_at) / Fold change /veh PLEKHG5 (11743358_a_at) / RFU ZSCAN30 (11745921_a_at) / Fold change /veh ZSCAN30 (11745921_a_at) / RFU CMKLR1 (11741424_a_at) / Fold change /veh CMKLR1 (11741424_a_at) / RFU LOC101060620 /// MAPK8IP1 (11723275_at) / Fold change /veh LOC101060620 /// MAPK8IP1 (11723275_at) / RFU SPTSSB (11747773_x_at) / Fold change /veh SPTSSB (11747773_x_at) / RFU PRSS12 (11739890_at) / Fold change /veh PRSS12 (11739890_at) / RFU BIN1 (11741810_x_at) / Fold change /veh BIN1 (11741810_x_at) / RFU WNT11 (11732464_a_at) / Fold change /veh WNT11 (11732464_a_at) / RFU C10orf10 (11716521_a_at) / Fold change /veh C10orf10 (11716521_a_at) / RFU C5orf56 (11738089_at) / Fold change /veh C5orf56 (11738089_at) / RFU CYB561 (11721691_x_at) / Fold change /veh CYB561 (11721691_x_at) / RFU ANKRD19P (11752326_a_at) / Fold change /veh ANKRD19P (11752326_a_at) / RFU OR2T12 /// OR2T33 /// OR2T8 (11738714_s_at) / Fold change /veh OR2T12 /// OR2T33 /// OR2T8 (11738714_s_at) / RFU VCAN (11748164_a_at) / Fold change /veh VCAN (11748164_a_at) / RFU JSRP1 (11732532_at) / Fold change /veh JSRP1 (11732532_at) / RFU KRTAP10-11 (11738290_x_at) / Fold change /veh KRTAP10-11 (11738290_x_at) / RFU MYO3A (11730013_a_at) / Fold change /veh MYO3A (11730013_a_at) / RFU EBF3 (11725865_a_at) / Fold change /veh EBF3 (11725865_a_at) / RFU CAMK2N1 (11719241_x_at) / Fold change /veh CAMK2N1 (11719241_x_at) / RFU C5orf56 (11738088_a_at) / Fold change /veh C5orf56 (11738088_a_at) / RFU OLFML3 (11715873_a_at) / Fold change /veh OLFML3 (11715873_a_at) / RFU LOC100653217 /// NTM (11731650_a_at) / Fold change /veh LOC100653217 /// NTM (11731650_a_at) / RFU MAPK11 (11762145_a_at) / Fold change /veh MAPK11 (11762145_a_at) / RFU FIZ1 (11724087_x_at) / Fold change /veh FIZ1 (11724087_x_at) / RFU OASL (11726364_x_at) / Fold change /veh OASL (11726364_x_at) / RFU SOX15 (11748057_x_at) / Fold change /veh SOX15 (11748057_x_at) / RFU CD79A (11719716_a_at) / Fold change /veh CD79A (11719716_a_at) / RFU HIST1H1D (11736915_at) / Fold change /veh HIST1H1D (11736915_at) / RFU CASKIN2 (11723855_a_at) / Fold change /veh CASKIN2 (11723855_a_at) / RFU LOC730098 (11760151_x_at) / Fold change /veh LOC730098 (11760151_x_at) / RFU OR4N2 (11742367_at) / Fold change /veh OR4N2 (11742367_at) / RFU PRRT2 (11749266_a_at) / Fold change /veh PRRT2 (11749266_a_at) / RFU SNX32 (11753110_a_at) / Fold change /veh SNX32 (11753110_a_at) / RFU CDHR5 (11726645_a_at) / Fold change /veh CDHR5 (11726645_a_at) / RFU RCAN1 (11760418_a_at) / Fold change /veh RCAN1 (11760418_a_at) / RFU FAM167A (11723789_a_at) / Fold change /veh FAM167A (11723789_a_at) / RFU FAM26E (11764081_at) / Fold change /veh FAM26E (11764081_at) / RFU ISYNA1 (11749810_s_at) / Fold change /veh ISYNA1 (11749810_s_at) / RFU ACY1 (11761880_at) / Fold change /veh ACY1 (11761880_at) / RFU 11764098_at / Fold change /veh 11764098_at / RFU SAMD14 (11745864_x_at) / Fold change /veh SAMD14 (11745864_x_at) / RFU NPB (11741838_a_at) / Fold change /veh NPB (11741838_a_at) / RFU TMPRSS6 (11731388_a_at) / Fold change /veh TMPRSS6 (11731388_a_at) / RFU KRTAP10-2 (11738614_at) / Fold change /veh KRTAP10-2 (11738614_at) / RFU ARHGAP8 /// PRR5-ARHGAP8 (11727945_x_at) / Fold change /veh ARHGAP8 /// PRR5-ARHGAP8 (11727945_x_at) / RFU KRTAP5-7 /// NADSYN1 (11734609_at) / Fold change /veh KRTAP5-7 /// NADSYN1 (11734609_at) / RFU RASL12 (11751679_a_at) / Fold change /veh RASL12 (11751679_a_at) / RFU CDKN2B (11736163_a_at) / Fold change /veh CDKN2B (11736163_a_at) / RFU PRF1 (11729649_at) / Fold change /veh PRF1 (11729649_at) / RFU, ZNF638 /// ZNF638-IT1 / Fold change vs veh, ZNF638 /// ZNF638-IT1 / RFU, PANK3 / Fold change vs veh, PANK3 / RFU, SH3YL1 / Fold change vs veh, SH3YL1 / RFU, ZEB2 / Fold change vs veh, ZEB2 / RFU, NRIP1 / Fold change vs veh, NRIP1 / RFU, PTTG1IP / Fold change vs veh, PTTG1IP / RFU, CAPN2 / Fold change vs veh, CAPN2 / RFU, MED14 / Fold change vs veh, MED14 / RFU, SNORA58 / Fold change vs veh, SNORA58 / RFU, C1orf63 / Fold change vs veh, C1orf63 / RFU, LRRFIP1 / Fold change vs veh, LRRFIP1 / RFU, NDUFAF7 / Fold change vs veh, NDUFAF7 / RFU, SLC12A2 / Fold change vs veh, SLC12A2 / RFU, IBTK / Fold change vs veh, IBTK / RFU, ESF1 / Fold change vs veh, ESF1 / Fold change vs veh, TMEM50B / RFU, TAOK1 / Fold change vs veh, TAOK1 / RFU, ACBD3 / Fold change vs veh, ACBD3 / RFU, TMA16 / Fold change vs veh, TMA16 / RFU, RWDD3 / Fold change vs veh, RWDD3 / RFU, BCAT1 / Fold change vs veh, BCAT1 / RFU, EDEM3 / Fold change vs veh, EDEM3 / RFU, TMEM33 / Fold change vs veh, TMEM33 / RFU, WDR75 / Fold change vs veh, WDR75 / RFU, AHCTF1 / Fold change vs veh, AHCTF1 / RFU, TFRC / Fold change vs veh, TFRC / RFU, ZDHHC17 / Fold change vs veh, ZDHHC17 / RFU, NOM1 / Fold change vs veh, NOM1 / RFU, ARL8B / Fold change vs veh, ARL8B / RFU, ZBTB11 / Fold change vs veh, ZBTB11 / RFU, TAMM41 / Fold change vs veh, TAMM41 / RFU, KIAA1704 /// LOC100996395 / Fold change vs veh, KIAA1704 /// LOC100996395 / RFU, ING1 / Fold change vs veh, ING1 / RFU, TRMT61B / Fold change vs veh, TRMT61B / RFU, FUBP3 / Fold change vs veh, FUBP3 / RFU, TP53 / Fold change vs veh, TP53 / RFU, TNKS2 / Fold change vs veh, TNKS2 / RFU, ZFP14 / Fold change vs veh, ZFP14 / RFU, ACTR2 / Fold change vs veh, ACTR2 / RFU, PPP3R1 / Fold change vs veh, PPP3R1 / RFU, PIK3R1 / Fold change vs veh, PIK3R1 / RFU, HNRNPA1 / Fold change vs veh, HNRNPA1 / RFU, RNF170 / Fold change vs veh, RNF170 / RFU, ZNF28 / Fold change vs veh, ZNF28 / RFU, RNGTT / Fold change vs veh, RNGTT / RFU, OGT / Fold change vs veh, OGT / RFU, BRD1 / Fold change vs veh, BRD1 / RFU, MARS / Fold change vs veh, MARS / RFU, ZNF655 / Fold change vs veh, ZNF655 / RFU, FAHD1 / Fold change vs veh, FAHD1 / RFU, BDP1 / Fold change vs veh, BDP1 / RFU, LRRCC1 / Fold change vs veh, LRRCC1 / RFU, ARID1A / Fold change vs veh, ARID1A / RFU, ZNF146 / Fold change vs veh, ZNF146 / RFU, ZNF330 / Fold change vs veh, ZNF330 / RFU, GPN3 / Fold change vs veh, GPN3 / RFU, C9orf123 / Fold change vs veh, C9orf123 / RFU, N4BP2L2 / Fold change vs veh, N4BP2L2 / RFU, ARFIP1 / Fold change vs veh, ARFIP1 / RFU, FAM179B / Fold change vs veh, FAM179B / RFU, BCL10 / Fold change vs veh, BCL10 / RFU, UHRF1BP1L / Fold change vs veh, UHRF1BP1L / RFU, BET1 / Fold change vs veh, BET1 / RFU, CNOT2 / Fold change vs veh, CNOT2 / RFU, ZNF268 / Fold change vs veh, ZNF268 / Fold change vs veh, ZNF507 / RFU, DGCR2 / Fold change vs veh, DGCR2 / RFU, WDSUB1 / Fold change vs veh, WDSUB1 / Fold change vs veh, HSP90B1 /// MIR3652 / RFU, ADSS / Fold change vs veh, ADSS / RFU, GK / Fold change vs veh, GK / RFU, ZNF148 / Fold change vs veh, ZNF148 / RFU, TAF9 / Fold change vs veh, TAF9 / RFU, SLC1A5 / Fold change vs veh, SLC1A5 / RFU, SLMO2 / Fold change vs veh, SLMO2 / RFU, ABCC4 / Fold change vs veh, ABCC4 / RFU, LOC101060439 /// RAP1B / Fold change vs veh, LOC101060439 /// RAP1B / RFU, RFX7 / Fold change vs veh, RFX7 / RFU, GTPBP10 / Fold change vs veh, GTPBP10 / RFU, CNEP1R1 / Fold change vs veh, CNEP1R1 / RFU, BIVM-ERCC5 /// ERCC5 / Fold change vs veh, BIVM-ERCC5 /// ERCC5 / RFU, ILF3 / Fold change vs veh, ILF3 / RFU 11762660_at / Fold change /veh 11762660_at / RFU VCAN (11757783_s_at) / Fold change /veh VCAN (11757783_s_at) / RFU DDX43 (11728927_at) / Fold change /veh DDX43 (11728927_at) / RFU KRT8 (11758188_x_at) / Fold change /veh KRT8 (11758188_x_at) / RFU NKD1 (11759106_at) / Fold change /veh NKD1 (11759106_at) / RFU SRD5A1 (11742802_a_at) / Fold change /veh SRD5A1 (11742802_a_at) / RFU TPSAB1 /// TPSB2 (11721975_s_at) / Fold change /veh TPSAB1 /// TPSB2 (11721975_s_at) / RFU GSTM3 (11746129_a_at) / Fold change /veh GSTM3 (11746129_a_at) / RFU IL23R (11737362_x_at) / Fold change /veh IL23R (11737362_x_at) / RFU TMEM51 (11727254_a_at) / Fold change /veh TMEM51 (11727254_a_at) / RFU PIWIL2 (11732686_x_at) / Fold change /veh PIWIL2 (11732686_x_at) / RFU ORM1 (11744905_x_at) / Fold change /veh ORM1 (11744905_x_at) / RFU CCDC152 (11743942_at) / Fold change /veh CCDC152 (11743942_at) / RFU ECM1 (11717891_a_at) / Fold change /veh ECM1 (11717891_a_at) / RFU IL23R (11748794_a_at) / Fold change /veh IL23R (11748794_a_at) / RFU TNFAIP8L3 (11732012_x_at) / Fold change /veh TNFAIP8L3 (11732012_x_at) / RFU MBOAT4 (11741988_at) / Fold change /veh MBOAT4 (11741988_at) / RFU 11764193_at / Fold change /veh 11764193_at / RFU TMEM53 (11763286_at) / Fold change /veh TMEM53 (11763286_at) / RFU MAGEB2 (11727129_at) / Fold change /veh MAGEB2 (11727129_at) / RFU TMEM200A (11744735_a_at) / Fold change /veh TMEM200A (11744735_a_at) / RFU CCDC152 (11751479_a_at) / Fold change /veh CCDC152 (11751479_a_at) / RFU FAM211A (11726209_a_at) / Fold change /veh FAM211A (11726209_a_at) / RFU RGS16 (11746705_a_at) / Fold change /veh RGS16 (11746705_a_at) / RFU VCAN (11755009_s_at) / Fold change /veh VCAN (11755009_s_at) / RFU RHOB (11743442_s_at) / Fold change /veh RHOB (11743442_s_at) / RFU RGS16 (11720943_a_at) / Fold change /veh RGS16 (11720943_a_at) / RFU RGS16 (11720944_at) / Fold change /veh RGS16 (11720944_at) / RFU, VPS4B / Fold change vs veh, VPS4B / RFU, CREB1 / Fold change vs veh, CREB1 / RFU, DNAJC13 / Fold change vs veh, DNAJC13 / RFU, GNAQ / Fold change vs veh, GNAQ / RFU, CDK5R1 / Fold change vs veh, CDK5R1 / RFU, ZRANB3 / Fold change vs veh, ZRANB3 / RFU, CUL4A / Fold change vs veh, CUL4A / RFU, CCNY / Fold change vs veh, CCNY / RFU, UFL1 / Fold change vs veh, UFL1 / RFU, COG3 / Fold change vs veh, COG3 / RFU, DIAPH2 / Fold change vs veh, DIAPH2 / RFU, SKA2 / Fold change vs veh, SKA2 / RFU, AFF3 / Fold change vs veh, AFF3 / RFU, LMF1 / Fold change vs veh, LMF1 / RFU, IPO11 / Fold change vs veh, IPO11 / RFU, DFFB / Fold change vs veh, DFFB / RFU, FOXP1 / Fold change vs veh, FOXP1 / RFU, CARD8 / Fold change vs veh, CARD8 / RFU, STRN3 / Fold change vs veh, STRN3 / RFU, ADK / Fold change vs veh, ADK / RFU, RASSF2 / Fold change vs veh, RASSF2 / RFU, WIPF1 / Fold change vs veh, WIPF1 / RFU, LARP1B / Fold change vs veh, LARP1B / RFU, RASA1 / Fold change vs veh, RASA1 / RFU, RB1 / Fold change vs veh, RB1 / RFU, PPFIA1 / Fold change vs veh, PPFIA1 / RFU, MAT2A / Fold change vs veh, MAT2A / RFU, CCT5 / Fold change vs veh, CCT5 / RFU, WDR92 / Fold change vs veh, WDR92 / RFU, CUX1 / Fold change vs veh, CUX1 / RFU, TTC7A / Fold change vs veh, TTC7A / RFU, TMEM135 / Fold change vs veh, TMEM135 / RFU, DEPTOR / Fold change vs veh, DEPTOR / RFU, CPM / Fold change vs veh, CPM / RFU, DNAJB6 / Fold change vs veh, DNAJB6 / RFU, CACNA2D3 / Fold change vs veh, CACNA2D3 / RFU, DTX4 / Fold change vs veh, DTX4 / RFU, TFCP2 / Fold change vs veh, TFCP2 / RFU, GMCL1 /// GMCL1P1 / Fold change vs veh, GMCL1 /// GMCL1P1 / RFU, AEBP2 / Fold change vs veh, AEBP2 / RFU, SNHG1 /// SNORD22 /// SNORD25 /// SNORD26 /// SNORD27 /// SNORD28 /// SNORD29 /// SNORD31 / Fold change vs veh, SNHG1 /// SNORD22 /// SNORD25 /// SNORD26 /// SNORD27 /// SNORD28 /// SNORD29 /// SNORD31 / Fold change (Aza/veh), C12orf56 (ProbeSet 11735607_a_at) / Fold change (ACY-1035/veh), C12orf56 (ProbeSet 11735607_a_at) / Fold change (Aza/veh), FGFR1OP (ProbeSet 11751329_s_at) / Fold change (ACY-1035/veh), FGFR1OP (ProbeSet 11751329_s_at) / Fold change (Aza/veh), VPS36 (ProbeSet 11739960_a_at) / Fold change (ACY-1035/veh), VPS36 (ProbeSet 11739960_a_at) / RFU SYPL1 (11715823_x_at) / Fold change /veh SYPL1 (11715823_x_at) / RFU IGFBP7 (11715501_s_at) / Fold change /veh IGFBP7 (11715501_s_at) / RFU REEP3 (11722064_at) / Fold change /veh REEP3 (11722064_at) / RFU IGLL1 (11728026_x_at) / Fold change /veh IGLL1 (11728026_x_at): dose or concentration left out as unconfirmed.

For `Nc1ncn([C@@H]2O[C@H](CO)[C@@H](O)[C@H]2O)c(=O)n1` [azacitidine], the “Fold change /veh LRRC4B (11730491_at)” value was determined as 1.07.

The values are drawn from paper PMC5218480 (PLoS ONE, 2017).
